Experiments:
Assay type in all cases: cell-based
E. coli BL21 = assay: MIC against Gram-negative bacteria: E. coli BL21; settings: 5×10^5 CFU/mL
Procedure, shortened: (§1)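 Bacteria grown in LB at 37° C to McFarland 0.5, resuspended and seeded at 5×10^5 CFU/mL in 96-well plates. Purified human EGF-domain proteins two-fold serially diluted, triplicate wells; cultured at 37° C, shaking 175 rpm. MIC = lowest protein concentration with no growth.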

Aeromonas hydrophila = assay: MIC against Gram-negative bacteria: Aeromonas hydrophila; settings: 5×10^5 CFU/mL
Procedure, shortened: as §1

Proteus mirabilis = assay: MIC against Gram-negative bacteria: Proteus mirabilis; settings: 5×10^5 CFU/mL
Procedure, shortened: as §1

Citrobacter diversus = assay: MIC against Gram-negative bacteria: Citrobacter diversus; settings: 5×10^5 CFU/mL
Procedure, shortened: as §1

Pseudomonas aeruginosa = assay: MIC against Gram-negative bacteria: Pseudomonas aeruginosa; settings: 5×10^5 CFU/mL
Procedure, shortened: as §1

E. coli DH5α = assay: Antibacterial activity: MIC and growth curve against E. coli DH5α in 96-well plate; settings: minimal inhibitory concentration against E. coli DH5α; 96-well plate, 5×10^5 CFU/mL, 37° C., judged after 8 h
Procedure, shortened: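 Log-phase bacteria (OD600 ~0.5) resuspended in LB at 5×10^5 CFU/mL, exposed to recombinant protein at 50, 25, 12.5 μg/mL final in triplicate, 37 °C shaking at 175 rpm. OD600 read every 30 min; MIC is lowest concentration showing no growth.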

Moraxella catarrhalis = assay: MIC against Gram-negative bacteria: Moraxella catarrhalis; settings: 5×10^5 CFU/mL
Procedure, shortened: as §1

Proteus vulgaris = assay: MIC against Gram-negative bacteria: Proteus vulgaris; settings: 5×10^5 CFU/mL
Procedure, shortened: as §1

Enterobacter cloacae = assay: MIC against Gram-negative bacteria: Enterobacter cloacae; settings: 5×10^5 CFU/mL
Procedure, shortened: as §1

Serratia marcescens = assay: MIC against Gram-negative bacteria: Serratia marcescens; settings: 5×10^5 CFU/mL
Procedure, shortened: as §1

Klebsiella pneumonia = assay: MIC against Gram-negative bacteria: Klebsiella pneumonia; settings: 5×10^5 CFU/mL
Procedure, shortened: as §1

[1] = E. coli BL21, 10 h cultivation at 37° C.
[2] = A. hydrophila, 10 h cultivation at 37° C.
[3] = P. mirabilis, 10 h cultivation at 37° C.
[4] = C. diversus, 10 h cultivation at 37° C.
[5] = P. aeruginosa, 10 h cultivation at 37° C.
[6] = M. catarrhalis, 10 h cultivation at 37° C.
[7] = P. vulgaris, 10 h cultivation at 37° C.
[8] = E. cloacae, 10 h cultivation at 37° C.
[9] = S. marcescens, 10 h cultivation at 37° C.
[10] = K. pneumonia, 10 h cultivation at 37° C.

PRT1445 (PCLNDCGPYGQCLLLRRHSYLYASCSCKAGWRGWSCT; listed as Homo sapiens)
MIC against E. coli BL21 (E. coli BL21; [1]): 12.5 µg/mL | MIC against A. hydrophila (Aeromonas hydrophila; Aeromonas hydrophila, 10 h cultivation at 37° C.): 50 µg/mL | MIC against P. mirabilis (Proteus mirabilis; Proteus mirabilis, 10 h cultivation at 37° C.): 50 µg/mL | MIC against C. diversus (Citrobacter diversus; Citrobacter diversus, 10 h cultivation at 37° C.): 25 µg/mL | MIC against P. aeruginosa (Pseudomonas aeruginosa; Pseudomonas aeruginosa, 10 h cultivation at 37° C.): 50 µg/mL | MIC (E. coli DH5α): 50 µg/mL | MIC against M. catarrhalis (Moraxella catarrhalis; Moraxella catarrhalis, 10 h cultivation at 37° C.): 25 µg/mL | MIC against P. vulgaris (Proteus vulgaris; Proteus vulgaris, 10 h cultivation at 37° C.): 25 µg/mL | MIC against E. cloacae (Enterobacter cloacae; Enterobacter cloacae, 10 h cultivation at 37° C.): 50 µg/mL | MIC against S. marcescens (Serratia marcescens; Serratia marcescens, 10 h cultivation at 37° C.): 50 µg/mL | MIC against K. pneumonia (Klebsiella pneumonia; Klebsiella pneumonia, 10 h cultivation at 37° C.): 50 µg/mL

PRT158 (PGESHANDLECSGKGKCTTKPSEATFSCTCEEQYVGTFCE; listed as Homo sapiens)
MIC (μg/mL) E. coli BL21 (E. coli BL21; [1]): 12.5 µg/mL | MIC (μg/mL) A. hydrophila (Aeromonas hydrophila; [2]): 25 µg/mL | MIC (μg/mL) P. mirabilis (Proteus mirabilis; [3]): 50 µg/mL | MIC (μg/mL) C. diversus (Citrobacter diversus; [4]): 12.5 µg/mL | MIC (μg/mL) P. aeruginosa (Pseudomonas aeruginosa; [5]): 50 µg/mL | MIC (E. coli DH5α): 12.5 µg/mL | MIC (μg/mL) M. catarrhalis (Moraxella catarrhalis; [6]): 25 µg/mL | MIC (μg/mL) P. vulgaris (Proteus vulgaris; [7]): 25 µg/mL | MIC (μg/mL) E. cloacae (Enterobacter cloacae; [8]): 50 µg/mL | MIC (μg/mL) S. marcescens (Serratia marcescens; [9]): 12.5 µg/mL | MIC (μg/mL) K. pneumonia (Klebsiella pneumonia; [10]): 12.5 µg/mL

PRT448 (SFRCQCEPGFQLGPNNRSCVDVNE; listed as Homo sapiens)
MIC against E. coli BL21 (E. coli BL21; 96-well plate, 37° C., 10 h): 50 µg/mL | MIC against A. hydrophila (Aeromonas hydrophila; 96-well plate, 37° C., 10 h): 50 µg/mL | MIC against P. mirabilis (Proteus mirabilis; 96-well plate, 37° C., 10 h): 25 µg/mL | MIC against C. diversus (Citrobacter diversus; 96-well plate, 37° C., 10 h): 25 µg/mL | MIC against P. aeruginosa (Pseudomonas aeruginosa; 96-well plate, 37° C., 10 h): 100 µg/mL | MIC (E. coli DH5α): 12.5 µg/mL | MIC against M. catarrhalis (Moraxella catarrhalis; 96-well plate, 37° C., 10 h): 12.5 µg/mL | MIC against P. vulgaris (Proteus vulgaris; 96-well plate, 37° C., 10 h): 50 µg/mL | MIC against E. cloacae (Enterobacter cloacae; 96-well plate, 37° C., 10 h): 12.5 µg/mL | MIC against S. marcescens (Serratia marcescens; 96-well plate, 37° C., 10 h): 12.5 µg/mL | MIC against K. pneumonia (Klebsiella pneumonia; 96-well plate, 37° C., 10 h): 50 µg/mL

PRT706 (EVNHCSNYCQNGGTCVPSVLGRPTCSCALGFTGPNCG; listed as Homo sapiens)
MIC E. coli BL21 (E. coli BL21; 96-well plate, 37° C., 10 h): 50 µg/mL | MIC A. hydrophila (Aeromonas hydrophila; 96-well plate, 37° C., 10 h): 50 µg/mL | MIC P. mirabilis (Proteus mirabilis; 96-well plate, 37° C., 10 h): 12.5 µg/mL | MIC C. diversus (Citrobacter diversus; 96-well plate, 37° C., 10 h): 12.5 µg/mL | MIC P. aeruginosa (Pseudomonas aeruginosa; 96-well plate, 37° C., 10 h): 12.5 µg/mL | MIC (E. coli DH5α): 25 µg/mL | MIC M. catarrhalis (Moraxella catarrhalis; 96-well plate, 37° C., 10 h): 50 µg/mL | MIC P. vulgaris (Proteus vulgaris; 96-well plate, 37° C., 10 h): 50 µg/mL | MIC E. cloacae (Enterobacter cloacae; 96-well plate, 37° C., 10 h): 25 µg/mL | MIC S. marcescens (Serratia marcescens; 96-well plate, 37° C., 10 h): 12.5 µg/mL | MIC K. pneumonia (Klebsiella pneumonia; 96-well plate, 37° C., 10 h): 12.5 µg/mL

PRT720 (INECHDPSISGCDHNCTDTLTSFYCSCRPGYKLMSDKRTCV; listed as Homo sapiens)
MIC E. coli BL21 (E. coli BL21; 96-well plate, 37° C., 10 h): 25 µg/mL | MIC A. hydrophila (Aeromonas hydrophila; 96-well plate, 37° C., 10 h): 12.5 µg/mL | MIC P. mirabilis (Proteus mirabilis; 96-well plate, 37° C., 10 h): 25 µg/mL | MIC C. diversus (Citrobacter diversus; 96-well plate, 37° C., 10 h): 25 µg/mL | MIC P. aeruginosa (Pseudomonas aeruginosa; 96-well plate, 37° C., 10 h): 12.5 µg/mL | MIC (E. coli DH5α): 50 µg/mL | MIC M. catarrhalis (Moraxella catarrhalis; 96-well plate, 37° C., 10 h): 50 µg/mL | MIC P. vulgaris (Proteus vulgaris; 96-well plate, 37° C., 10 h): 12.5 µg/mL | MIC E. cloacae (Enterobacter cloacae; 96-well plate, 37° C., 10 h): 50 µg/mL | MIC S. marcescens (Serratia marcescens; 96-well plate, 37° C., 10 h): 50 µg/mL | MIC K. pneumonia (Klebsiella pneumonia; 96-well plate, 37° C., 10 h): 12.5 µg/mL

PRT433 (DIDECRYGYCQQLCANVPGSYSCTCNPGFTLNEDGRSCQ; listed as Homo sapiens)
MIC (E. coli BL21; [1]): 25 µg/mL | MIC (Aeromonas hydrophila; [2]): 12.5 µg/mL | MIC (Proteus mirabilis; [3]): 50 µg/mL | MIC (Citrobacter diversus; [4]): 50 µg/mL | MIC (Pseudomonas aeruginosa; [5]): 12.5 µg/mL | MIC (E. coli DH5α): 12.5 µg/mL | MIC (Moraxella catarrhalis; [6]): 12.5 µg/mL | MIC (Proteus vulgaris; [7]): 12.5 µg/mL | MIC (Enterobacter cloacae; [8]): 50 µg/mL | MIC (Serratia marcescens; [9]): 50 µg/mL | MIC (Klebsiella pneumonia; [10]): 12.5 µg/mL

From US9833497B2, “Human originated EGF domain proteins and use of the same” (CHENGDU SOURCEBIO LIMITED-LIABILITY COMPANY, priority 2013, dated 2017)
